Results published in patent US5563277A, “Process for preparing benzyl-substituted rhodanine derivatives” (Eli Lilly and Company, priority 1994, dated 1996).

system: Acetic Acid Induced Colitis; assay: Inhibition of Acetic Acid Induced Colitis; format: in vivo, Male Sprague-Dawley rats; conditions: rat; 30 mg/kg oral, 2 h before 2 ml of 2.5% acetic acid intracolonic enema, second dose 6 h after enema; colon lesions scored 0-4 twenty four hours later vs vehicle
Description: As noted above, the present invention provides a method of treating inflammatory bowel disease in mammals.
Male Sprague-Dawley rats from Charles River Laboratories, Portage, Mich. (weight approximately 250 g) were dosed orally with test compound (30 mg/kg) or vehicle (control). Two hours after dosing, each animal received 2 ml of a 2.5% acetic acid intracolonic enema via a cannula, the tip of which was placed 8 cm above the anal verge. This concentration of acetic acid produced a severe inflammatory response in the colon characterized by rectal bleeding, diarrhea, epithelial erosions and destructions of crypts and gland cells. Six hours from the enema the test animals were then given a second dose of test compound or vehicle. Twenty four hours later the test and control animals were killed and the distal ten centimeters of the colon were removed and opened longitudinally. The tissue lesions contained within the removed, opened, section of colon were scored by three independent blinded observers on a scale of 0 to 4 (zero=normal, four=worst inflammation). In each test group 5-7 rats were used. Test results from animals given test compound dissolved in vehicle were compared with test results from animals given vehicle alone in order to determine the percentage of lesion inhibition attributable to the test compound.

Compared with `CC(C)(C)c1cc(CC(S)C(=O)O)cc(C(C)(C)C)c1O` (stereo not shown) [3-[3,5-bis(1,1-dimethylethyl)-4-hydroxyphenyl]-2-mercaptopropanoic acid], `C[C@H](c1ccccc1)N1CS[C@@H](Cc2cc(C(C)(C)C)c(O)c(C(C)(C)C)c2)C1=O` [(3αR, 5S)-5-[[3,5-bis (1,1-dimethylethyl)-4-hydroxyphenyl]methyl]-3-(1-phenylethyl)-4-thiazolidinone] is higher in “% Inhibition (percentage of lesion inhibition)” value: 18% for the first, 36% for the second.

Going from `COC(=O)c1ccc(CN2CSC(Cc3cc(C(C)(C)C)c(O)c(C(C)(C)C)c3)C2=O)cc1` (stereo not shown) [5-[[3,5-bis(1,1-dimethylethyl)-4-hydroxyphenyl]methyl]-3-(carbomethoxybenzyl)-4-thiazolidinone] to `C[C@H](c1ccccc1)N1CS[C@H](Cc2cc(C(C)(C)C)c(O)c(C(C)(C)C)c2)C1=O` [(3αR,5R)-5-[[3,5-bis(1,1-dimethylethyl)-4-hydroxyphenyl]methyl]-3-(1-phenylethyl)-4-thiazolidinone], the “% Inhibition (percentage of lesion inhibition)” value rises from 11% to 30%.
